# Patent US7741326B2, “Indole and benzofuran 2-carboxamide derivatives and uses thereof” (Roche Palo Alto LLC, priority 2006, dated 2010)
# Experiments:
# [1] = biological target: T1, recombinant human 5-HT6 receptor (Homo sapiens, UniProt P50406); assay: Radioligand binding, [3H]LSD competition in HEK293 cell membranes; conditions: [3H]LSD displacement, pH 7.4 at 37° C., read-out: pKi for the 5-HT6 receptor (converted)
# T1 construct: expressed in transfected cells
# Method: (§1) The binding activity of compounds of this invention in vitro was determined as follows. Duplicate determinations of 5-HT6 ligand affinity were made by competing for binding of [^3H]LSD in cell membranes derived from HEK293 cells stably expressing recombinant human 5-HT6 receptor. Duplicate determinations of 5-HT2A ligand affinity were made by competing for binding of [^3H]Ketanserin (3-(2-(4-(4-fluorobenzoyl)piperidinol)ethyl)-2,4(1H,3H)-quinazolinedione) in cell membranes derived from CHO-Ki cells stably expressing recombinant human 5-HT2A receptor. Membranes were prepared from HEK 293 cell lines by the method described by Monsma et al., Molecular Pharmacology, Vol. 43 pp. 320-327 (1993), and from CHO-K1 cell lines as described by Bonhaus et al., Br J Pharmacol. June; 115(4):622-8 (1995).
# (§2) For estimation of affinity at the 5-HT6 receptor, all determinations were made in assay buffer containing 50 mM Tris-HCl, 10 mM MgSO4, 0.5 mM EDTA, 1 mM ascorbic acid, pH 7.4 at 37° C., in a 250 microliter reaction volume. […]
# (§3) Assay tubes containing [^3H] […] LSD or [^3H]Ketanserin were determined as radioactive counts per minute using Packard TopCount.
# (§4) Displacement of [^3H]LSD or [^3H]Ketanserin from the binding sites was quantified by fitting concentration-binding data to a 4-parameter logistic equation: […]
# [2] = biological target: T2, recombinant human 5-HT2A receptor (Homo sapiens, UniProt P28223); assay: Radioligand binding, [3H]Ketanserin competition in CHO-K1 cell membranes; conditions: [3H]Ketanserin displacement, pH 7.4 at 32° C., read-out: pKi for the 5-HT2A receptor (converted)
# T2 construct: expressed in transfected cells
# T2 sequence (P28223 whole entry): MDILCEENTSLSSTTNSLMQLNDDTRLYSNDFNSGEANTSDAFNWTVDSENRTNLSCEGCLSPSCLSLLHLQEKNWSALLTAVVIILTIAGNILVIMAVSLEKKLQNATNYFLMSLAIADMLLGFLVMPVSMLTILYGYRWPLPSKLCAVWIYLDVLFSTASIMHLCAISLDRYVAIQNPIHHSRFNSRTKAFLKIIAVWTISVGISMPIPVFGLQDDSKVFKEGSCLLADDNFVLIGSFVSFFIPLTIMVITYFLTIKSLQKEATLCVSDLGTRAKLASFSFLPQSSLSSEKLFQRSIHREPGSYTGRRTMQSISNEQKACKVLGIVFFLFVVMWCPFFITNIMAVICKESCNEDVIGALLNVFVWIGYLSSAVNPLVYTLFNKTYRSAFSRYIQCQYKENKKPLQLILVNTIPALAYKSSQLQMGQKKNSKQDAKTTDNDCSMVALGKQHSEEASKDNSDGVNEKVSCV
# Method: as §1, §2, §3, §4
# T1 sequence (P50406 whole entry): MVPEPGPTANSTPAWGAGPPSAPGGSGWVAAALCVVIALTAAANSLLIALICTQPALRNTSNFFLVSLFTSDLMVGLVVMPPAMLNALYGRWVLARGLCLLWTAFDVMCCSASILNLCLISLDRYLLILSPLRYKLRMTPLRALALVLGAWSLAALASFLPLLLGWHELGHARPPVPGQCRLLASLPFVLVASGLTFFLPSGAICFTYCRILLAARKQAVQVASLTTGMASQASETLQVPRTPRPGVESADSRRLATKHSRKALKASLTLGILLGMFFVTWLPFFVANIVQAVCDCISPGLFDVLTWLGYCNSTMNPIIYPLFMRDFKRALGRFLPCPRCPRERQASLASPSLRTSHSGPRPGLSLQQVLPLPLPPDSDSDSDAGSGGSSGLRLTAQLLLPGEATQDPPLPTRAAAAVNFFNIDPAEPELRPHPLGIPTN
structure (smiles),measurement,setting,value
"CNC(=O)c1cc2c(N3CCNCC3)cccc2n1Cc1cccc(F)c1 [Compound 26, 1-(3-Fluoro-benzyl)-4-piperazin-1-yl-1H-indole-2-carboxylic acid methylamide]",Ki,[1],~0.126 nM
"Cc1cc(N2CCNCC2)c2oc(C(N)=O)c(Cc3cccc(F)c3)c2c1 [Compound 31, 3-(3-Fluoro-benzyl)-5-methyl-7-piperazin-1-yl-benzofuran-2-carboxylic acid amide]",Ki,[2],~1.23 nM
